{
  "source": "patent US6559101B2",
  "about": "“N- (5, 7-dimethoxy [1, 2, 4] triazolo [1, 5-a] pyrimidin-2-yl) arylsulfonamide compounds and their use as herbicides” (Dow AgroSciences LLC, priority 2000, dated 2003)",
  "format_in_all_cases": "in vivo",
  "key": {"[1]": {"tested_on": "blackgrass (Alopecurus myosuroides)", "assay": "Postemergence herbicidal activity with safener", "conditions": "25 g/ha postemergence; 0 no injury, 100 complete kill", "description": "(§1) Pre-formulated test materials utilized were as follows: Compound 15 as a 30 g ai/L emulsified concentrate (3% Compound 15, 3% Agrimer AL-10 (copolymer of 1-ethenyl-2-pyrolidinone and 1-butene), 94% N-methyl pyrrolidone w/w) and cloquintocet-mexyl (CQC) as a 120 g ai/L emulsified concentrate (12% cloquintocet-mexyl, 2.5% Toximul D, 2.5% Toximul H, [blends of calcium dodecylbenzenesulfonate plus castor oil ehtoxylates, nonylphenol ethoxylates and EO-PO block copolymers] 83% aromatic 200 w/w). Diluted stock solutions of formulated materials were made in distilled water. Final spray solutions were made by adding specified aliquots of diluted stock materials to a solution containing distilled water and X-77 surfactant at 0.25% v/v. The solutions were applied using a mechanized track-sprayer calibrated to deliver 187 1/ha carrier volume with a nozzle (flat fan) pressure of 276 kilopascals.\n(§2) Assessment of weed control and crop injury was taken a 3 weeks after application. Plant injury was visually assessed on a scale of 0 to 100% with 0 equal to no injury and 100 equal to complete kill."}, "[2]": {"tested_on": "Green foxtail (Setaria viridis)", "assay": "Postemergence herbicidal activity with safener", "conditions": "25 g/ha postemergence; 0 no injury, 100 complete kill", "description": "as §1, §2"}, "[3]": {"tested_on": "Italian ryegrass (Lolium multiflorum)", "assay": "Postemergence herbicidal activity with safener", "conditions": "25 g/ha postemergence; 0 no injury, 100 complete kill", "description": "as §1, §2"}, "Wild oat (Avena fatua)": {"tested_on": "Wild oat (Avena fatua)", "assay": "Postemergence herbicidal activity with safener", "conditions": "25 g/ha postemergence; 0 no injury, 100 complete kill", "description": "as §1, §2"}, "[4]": {"tested_on": "Windgrass (Apera spica-venta)", "assay": "Postemergence herbicidal activity with safener", "conditions": "25 g/ha postemergence; 0 no injury, 100 complete kill", "description": "as §1, §2"}, "[5]": {"tested_on": "Spring wheat (Triticum aestivum)", "assay": "Postemergence herbicidal activity with safener, crop injury", "conditions": "25 g/ha postemergence; 3 weeks after application; 0 no injury, 100 complete kill", "description": "as §1, §2"}, "wild oats (Avena fatua) [6]": {"tested_on": "wild oats (Avena fatua)", "assay": "Preemergence herbicidal activity", "conditions": "17.5 g/Ha; scored after 3 weeks; 0 no injury, 100 complete kill or no germination", "in_short": "(§3)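 Application was to bare soil of seeded pots at rates no higher than 4.48 kg/ha. Three weeks on, plant condition was compared visually with untreated pots and expressed as percent injury.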"}, "[7]": {"tested_on": "barnyardgrass (Echinochloa crus-galli)", "assay": "Preemergence herbicidal activity", "conditions": "17.5 g/Ha; scored after 3 weeks; 0 no injury, 100 complete kill or no germination", "in_short": "as §3"}, "[8]": {"tested_on": "crabgrass (Digitaria sanguinalis)", "assay": "Preemergence herbicidal activity", "conditions": "17.5 g/Ha; scored after 3 weeks; 0 no injury, 100 complete kill or no germination", "in_short": "as §3"}, "[9]": {"tested_on": "morningglory (Ipomoea hederacea)", "assay": "Preemergence herbicidal activity", "conditions": "17.5 g/Ha; scored after 3 weeks; 0 no injury, 100 complete kill or no germination", "in_short": "as §3"}, "[10]": {"tested_on": "pigweed (Amaranthus retroflexus)", "assay": "Preemergence herbicidal activity", "conditions": "17.5 g/Ha; scored after 3 weeks; 0 no injury, 100 complete kill or no germination", "in_short": "as §3"}, "[11]": {"tested_on": "velvetleaf (Abutilion theophrasti)", "assay": "Preemergence herbicidal activity", "conditions": "17.5 g/Ha; scored after 3 weeks; 0 no injury, 100 complete kill or no germination", "in_short": "as §3"}, "[12]": {"tested_on": "giant foxtail (Setaria faberi)", "assay": "Preemergence herbicidal activity", "conditions": "17.5 g/Ha; scored after 3 weeks; 0 no injury, 100 complete kill or no germination", "in_short": "as §3"}, "[13]": {"tested_on": "blackgrass (Alopecurus myosuroides)", "assay": "Preemergence herbicidal activity", "conditions": "17.5 g/Ha; scored after 3 weeks; 0 no injury, 100 complete kill or no germination", "in_short": "as §3"}, "[14]": {"tested_on": "lambsquarters (Chenopodium album)", "assay": "Preemergence herbicidal activity", "conditions": "17.5 g/Ha; scored after 3 weeks; 0 no injury, 100 complete kill or no germination", "in_short": "as §3"}, "[15]": {"tested_on": "wild poinsettia (Euphorbia heterophylla)", "assay": "Preemergence herbicidal activity", "conditions": "17.5 g/Ha; scored after 3 weeks; 0 no injury, 100 complete kill or no germination", "in_short": "as §3"}, "[16]": {"tested_on": "Rox orange sorghum (Sorghum bicolor)", "assay": "Preemergence herbicidal activity", "conditions": "17.5 g/Ha; scored after 3 weeks; 0 no injury, 100 complete kill or no germination", "in_short": "as §3"}, "[17]": {"tested_on": "cocklebur (Xanthium strumarium)", "assay": "Preemergence herbicidal activity", "conditions": "17.5 g/Ha; scored after 3 weeks; 0 no injury, 100 complete kill or no germination", "in_short": "as §3"}, "viola (Viola tricolor)": {"tested_on": "viola (Viola tricolor)", "assay": "Postemergence herbicidal activity", "conditions": "7.8 ppm; scored after 2 weeks; 0 no injury, 100 complete kill", "in_short": "(§4)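 Percent injury, rated visually two weeks after application against untreated plants, reflects a thorough-coverage spray given at the first to second true leaf stage. Application rates in ppm approximate g/ha (1 ppm ≈ 1 g/ha).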"}, "wild oats (Avena fatua) [18]": {"tested_on": "wild oats (Avena fatua)", "assay": "Postemergence herbicidal activity", "conditions": "7.8 ppm; scored after 2 weeks; 0 no injury, 100 complete kill", "in_short": "as §4"}, "[19]": {"tested_on": "pigweed (Amaranthus retroflexus)", "assay": "Postemergence herbicidal activity", "conditions": "7.8 ppm; scored after 2 weeks; 0 no injury, 100 complete kill", "in_short": "as §4"}, "[20]": {"tested_on": "velvetleaf (Abutilion theophrasti)", "assay": "Postemergence herbicidal activity", "conditions": "7.8 ppm; scored after 2 weeks; 0 no injury, 100 complete kill", "in_short": "as §4"}, "[21]": {"tested_on": "giant foxtail (Setaria faberi)", "assay": "Postemergence herbicidal activity", "conditions": "7.8 ppm; scored after 2 weeks; 0 no injury, 100 complete kill", "in_short": "as §4"}, "[22]": {"tested_on": "blackgrass (Alopecurus myosuroides)", "assay": "Postemergence herbicidal activity", "conditions": "7.8 ppm; scored after 2 weeks; 0 no injury, 100 complete kill", "in_short": "as §4"}, "[23]": {"tested_on": "chickweed (Stellaria media)", "assay": "Postemergence herbicidal activity", "conditions": "7.8 ppm; scored after 2 weeks; 0 no injury, 100 complete kill", "in_short": "as §4"}, "[24]": {"tested_on": "lambsquarters (Chenopodium album)", "assay": "Postemergence herbicidal activity", "conditions": "7.8 ppm; scored after 2 weeks; 0 no injury, 100 complete kill", "in_short": "as §4"}, "[25]": {"tested_on": "Rox orange sorghum (Sorghum bicolor)", "assay": "Postemergence herbicidal activity", "conditions": "7.8 ppm; scored after 2 weeks; 0 no injury, 100 complete kill", "in_short": "as §4"}, "[26]": {"tested_on": "wild buckwheat (Polygonum convolvulus)", "assay": "Postemergence herbicidal activity", "conditions": "7.8 ppm; scored after 2 weeks; 0 no injury, 100 complete kill", "in_short": "as §4"}, "[27]": {"tested_on": "cocklebur (Xanthium strumarium)", "assay": "Postemergence herbicidal activity", "conditions": "7.8 ppm; scored after 2 weeks; 0 no injury, 100 complete kill", "in_short": "as §4"}},
  "data": [
    {"smiles": "COc1cc(OC)n2nc(NS(=O)(=O)c3c(C(F)(F)F)ccnc3OC)nc2n1", "note": "[Compound 15, N-(5,7-dimethoxy[1,2,4]triazolo[1,5-a]pyrimidin-2-yl)-2-methoxy-4-(trifluoromethyl)-3-pyridinesulfonamide]", "values": [
      {"measurement": "% Control 3 Weeks After Application ALOMY", "setting": "[1]", "result": 99, "unit": "%"},
      {"measurement": "% Control 3 Weeks After Application SETVI", "setting": "[2]", "result": 99, "unit": "%"},
      {"measurement": "% Control 3 Weeks After Application LOLMU", "setting": "[3]", "result": 99, "unit": "%"},
      {"measurement": "% Control 3 Weeks After Application AVEFA", "setting": "Wild oat (Avena fatua)", "result": 99, "unit": "%"},
      {"measurement": "% Control 3 Weeks After Application APSEV", "setting": "[4]", "result": 100, "unit": "%"},
      {"measurement": "% Injury TRZAS", "setting": "[5]", "result": 47, "unit": "%"},
      {"measurement": "Preemergence herbicidal activity AVEFA", "setting": "wild oats (Avena fatua) [6]", "result": 98, "unit": "%"},
      {"measurement": "Preemergence herbicidal activity ECHCG", "setting": "[7]", "result": 98, "unit": "%"},
      {"measurement": "Preemergence herbicidal activity DIGSA", "setting": "[8]", "result": 98, "unit": "%"},
      {"measurement": "Preemergence herbicidal activity IPOHE", "setting": "[9]", "result": 95, "unit": "%"},
      {"measurement": "Preemergence herbicidal activity AMARE", "setting": "[10]", "result": 70, "unit": "%"},
      {"measurement": "Preemergence herbicidal activity ABUTH", "setting": "[11]", "result": 95, "unit": "%"},
      {"measurement": "Preemergence herbicidal activity SETFA", "setting": "[12]", "result": 100, "unit": "%"},
      {"measurement": "Preemergence herbicidal activity ALOMY", "setting": "[13]", "result": 100, "unit": "%"},
      {"measurement": "Preemergence herbicidal activity CHEAL", "setting": "[14]", "result": 100, "unit": "%"},
      {"measurement": "Preemergence herbicidal activity EPHHL", "setting": "[15]", "result": 98, "unit": "%"},
      {"measurement": "Preemergence herbicidal activity SORBI", "setting": "[16]", "result": 100, "unit": "%"},
      {"measurement": "Preemergence herbicidal activity XANST", "setting": "[17]", "result": 95, "unit": "%"},
      {"measurement": "Postemergence herbicidal activity VIOTR", "setting": "viola (Viola tricolor)", "result": 95, "unit": "%"},
      {"measurement": "Postemergence herbicidal activity AVEFA", "setting": "wild oats (Avena fatua) [18]", "result": 98, "unit": "%"},
      {"measurement": "Postemergence herbicidal activity AMARE", "setting": "[19]", "result": 98, "unit": "%"},
      {"measurement": "Postemergence herbicidal activity ABUTH", "setting": "[20]", "result": 95, "unit": "%"},
      {"measurement": "Postemergence herbicidal activity SETFA", "setting": "[21]", "result": 100, "unit": "%"},
      {"measurement": "Postemergence herbicidal activity ALOMY", "setting": "[22]", "result": 99, "unit": "%"},
      {"measurement": "Postemergence herbicidal activity STEME", "setting": "[23]", "result": 98, "unit": "%"},
      {"measurement": "Postemergence herbicidal activity CHEAL", "setting": "[24]", "result": 95, "unit": "%"},
      {"measurement": "Postemergence herbicidal activity SORBI", "setting": "[25]", "result": 98, "unit": "%"},
      {"measurement": "Postemergence herbicidal activity POLCO", "setting": "[26]", "result": 98, "unit": "%"},
      {"measurement": "Postemergence herbicidal activity XANST", "setting": "[27]", "result": 90, "unit": "%"}
    ]}
  ]
}
